“Also recorded” adds a separate entry of the source.
Legend:
[1] = test system: monoclonal antibody MV-003; test: In vitro inhibition assay (ELISA), MV-003 binding to original epitope; parameters: species or system BalbC mice; details: Table 2A; OD at 10 ug peptide compared to original peptide
Experimental: (§1) Different amounts of peptides (concentrations ranging from 10 μg to 0.08 μg; serial dilutions; for MV-002: concentrations ranging from 5 μg to 0.03 μg; serial dilutions), derived from Phage Display were incubated with the monoclonal antibody that was used for the screening procedure. Peptides diminishing subsequent binding of the antibody to the original epitope coated on ELISA plates were considered as inhibiting in this assay.
(§2) Legend to Table 2A: the inhibition capacity is coded by the following code: Weak inhibition means more peptide is required to lower AB binding than with the original epitope; strong inhibition means similar peptide amounts are required for mimotope and original epitope for lowering AB binding. Mimotopes are compared to the original peptide as standard. OD at 10 ug peptide used in the assay is used to calculate the competition capacity compared to original peptide.

[2] = test system: monoclonal antibody MV-003; test: In vitro binding assay (ELISA), BSA-coupled peptides, parental antibody MV-003; parameters: species or system BalbC mice; details: Table 1A; peptide-BSA on plate, compared to original epitope
Experimental: Peptides derived from Phage Display as well as variants thereof were coupled to BSA and bound to ELISA plates (1 μM; as indicated in the respective figures) and subsequently incubated with the monoclonal antibody that was used for the screening procedure to analyse binding capacity of identified peptides.
Legend to Table 1A: the binding capacity is coded by the following binding code: 1:X describes the dilution factor of the parental AB.

[3] = test system: full length Aβ and/or fragments thereof; test: Immune response elicited by using AD mimotopes: detection of Aβ; assay type: in vivo; parameters: key: +: All peptides listed in table 1 mount specific immune reactions against full length Aβ and/or fragments thereof
Excerpt: In the following Table further examples of the immune response elicited by using AD mimotopes are described. All peptides listed in table 1 mount specific immune reactions against full length Aβ and/or fragments thereof.

[4] = test system: monoclonal antibody (DAEFRH-peptide-specific); test: Inhibition assay (ELISA): mimotope peptides compete with plate-bound original epitope DAEFRH for recognition by the monoclonal antibody; assay type: binding, Mice; details: for inhibition of binding of the monoclonal antibody to the original epitope: text to FIGS. 2-9; for Inhibitory capacity of mimotopes: summary Tables 1 and 2 (Examples 2, 3)
Excerpt: Mice are vaccinated with the 6mer peptide DAEFRH (natural N-terminal Aβ42 sequence) linked to the protein bovine serum albumin BSA (to make use of the hapten-carrier-effect), emulsified in CFA (first injection) and IFA (booster injections). DAEFRH-peptide-specific, antibody-producing hybridomas are detected by ELISA (DAEFRH-peptide-coated ELISA plates).
FIGS. 2 and 3 describe the results of inhibition assays performed with mimotope peptides included in and obtained from the 5 libraries (as described in WO 2004/062556). The mimotope peptides compete with the original epitope for recognition by the monoclonal antibody. Original epitope and mimotope peptides contain an additional C at the C-terminus for coupling to a protein carrier (if desired).
(§3) After blocking with PBS/BSA 1% (200 μl/well, 12 h, 4° C.), the plates are washed 3× times with PBS/Tween. Then, biotinylated monoclonal antibody (1:2000, 50 μl/well) and peptides (50 μl/well) at 50, 5, 0.5, 0.05, 0.005, and 0.0005 μg/ml are added for 20 min. at 37° C. The plates are washed 3× times with PBS/Tween and are incubated with horseradish peroxidase (HRP)-labeled streptavidin (100 μl/well, 30 min, RT). The plates are washed 5× times with PBS/Tween and are incubated with ABTS+H2O2(0.1% w/v, 10 to 45 min) and the reaction is stopped with citric acid followed by photometric evaluation (wavelength 405 nm).
as §3, with “different concentrations” for “50, 5, 0.5, 0.05, 0.005, and 0.0005 μg/ml”, “ABTS+H2O2 (0.1%” for “ABTS+H2O2(0.1%”
as §3, with “different concentrations” for “50, 5, 0.5, 0.05, 0.005, and 0.0005 μg/ml”

[5] = test system: injected peptide (mimotope-BSA conjugate); test: Mimotope vaccination, serum titer ELISA against injected peptide; assay type: in vivo, C57/B16 mice; details: 30 μg peptide-KLH s.c. with alum, anti-mouse IgG
Experimental: (§4) Inhibiting as well as non-inhibiting peptides were coupled to KLH and injected into mice (wildtype C57/B16 mice; subcutaneous injection into the flank) together with an appropriate adjuvant (aluminium hydroxide). Animals were vaccinated 3-6 times in biweekly intervals and sera were taken biweekly as well. Titers to injected peptides, as well as to an irrelevant peptide were determined with every serum. Furthermore, titers against the recombinant human Aβ protein, and against original peptides were determined respectively. In general sera were analysed by reaction against peptides coupled to Bovine Serum Albumin (BSA) and recombinant full length proteins which were immobilised on ELISA plates. Titers were determined using anti mouse IgG specific antibodies. For detailed results see FIGS. 15, 16 and 17 respectively and FIGS. 23, 24 and 25 respectively.
(§5) Female C57/b16 mice, 5-6 mice per group, were subcutaneously immunized with 30 μg peptide coupled to KLH. Control groups were administered original epitope-KLH conjugates respectively. As adjuvant alum was used (always 1 mg per mouse). […] The in vitro ELISA assay to determine the antibody titer was performed with sera of single mice after each vaccination in a two week interval (see FIGS. 15 and 16 respectively). The wells of the ELISA plate were coated with mimotope-BSA conjugate and an irrelevant peptide-BSA conjugate (negative control). The positive control was performed by reaction of the parental antibody with the respective mimotope-BSA conjugate. The detection was performed with anti-mouse IgG. Additionally, recombinant proteins were immobilised on ELISA plates and sera reacted accordingly. FIGS. 15 to 17 show representative examples for assays used to characterise mimotopes in vivo.
as §5, with “FIGS. 25” for “FIGS. 15”, “and 26” for “and 16”, “respectively). Titers were calculated as OD max/2 in all figures shown.” for “respectively).”, “FIGS. 23, 24 and 25” for “FIGS. 15 to 17”

irrelevant peptide p1454 = test: Mimotope vaccination, serum titer ELISA against irrelevant peptide; assay type: in vivo, C57/B16 mice; details: 30 μg peptide-KLH s.c. with alum
Experimental: as §4, §5
as §5, with “FIGS. 25” for “FIGS. 15”, “and 26” for “and 16”, “respectively). Titers were calculated as OD max/2 in all figures shown.” for “respectively).”, “FIGS. 23, 24 and 25” for “FIGS. 15 to 17”

[6] = test system: monoclonal antibody MV-002; test: In vitro binding assay (ELISA), BSA-coupled peptides, parental antibody MV-002; parameters: species or system C57/B16 mice; details: Table 1 (MV-002); peptide-BSA on plate, compared to original epitope
Outline: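 BSA-conjugated phage-display peptides and variants coated on ELISA plates at 1 μM, then incubated with the monoclonal antibody used for the screen. Binding capacity given as 1:X, the dilution factor of the parental antibody; Ac- marks acetylated amino acids.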

p4377 = test: Mimotope vaccination, serum ELISA against p4377; assay type: in vivo, C57/B16 mice; details: peptide-KLH vaccines with alum; FIG. 24
Experimental: as §4
as §5, with “FIGS. 25” for “FIGS. 15”, “and 26” for “and 16”, “respectively). Titers were calculated as OD max/2 in all figures shown.” for “respectively).”, “FIGS. 23, 24 and 25” for “FIGS. 15 to 17”

[7] = test system: monoclonal antibody MV-002; test: In vitro inhibition assay (ELISA), MV-002 binding to original epitope; parameters: species or system C57/B16 mice; details: for inhibition of binding of monoclonal antibody in in vitro competition experiments: MV-002 mimotopes; for Inhibition Capacity: Table 2 (MV-002), OD at 5 ug peptide compared to original peptide
Experimental: as §1
as §2, with “2:” for “2A:”, “5” for “10”

[8] = test system: Aβ/truncated/modified forms; test: In vivo characterisation of mimotopes: detection of Aβ/truncated/modified forms; parameters: species or system C57/B16 mice; key: +: All peptides listed in table 4 mount specific immune reactions against full length and/or truncated and modified forms of Aβ or fragments thereof; details: Table 4, MV-002 derived mimotopes
Experimental: as §4, §5
as §5, with “FIGS. 25” for “FIGS. 15”, “and 26” for “and 16”, “respectively). Titers were calculated as OD max/2 in all figures shown.” for “respectively).”, “FIGS. 23, 24 and 25” for “FIGS. 15 to 17”

[9] = competition ELISA, plate-bound DAEFRH-C-BSA

Compound | Detection of Aβ [3] | inhibition of binding of the monoclonal antibody to the original epitope [4, 9] | Inhibitory capacity of mimotopes [4] | immune response against injected peptide [5] | immune response against unrelated sequence (p1454) (irrelevant peptide p1454) | Binding Capacity [6] | immune response against original epitope p4377 (p4377) | inhibition of binding of monoclonal antibody in in vitro competition experiments [7] | Inhibition Capacity [7] | Detection of Aβ/truncated/modified forms [8] | also measured
IRWDGC [p4792] | – | – | – | – | – | – | – | – | – | – | Inhibition Capacity [1]: 1 (Weaker than original epitope (OD of 10 ug peptide below 12 times of original peptide)); Binding Capacity [2]: 1 (weak binding :<16000)
N=C(N)NCCC[C@H](NC(=O)[C@H](Cc1ccccc1)NC(=O)[C@H](CCC(=O)O)NC(=O)[C@H](Cc1ccc(O)cc1)NC(=O)[C@@H](N)CCC(=O)O)C(=O)NCC(=O)N[C@@H](CS)C(=O)O [Peptide 1239, EYEFRG] | + | block epitope recognition | intermediate | – | – | – | – | – | – | – | IC50 (inhibition of monoclonal antibody recognition of DAEFRH) ([4]; competition ELISA, plate-bound DAEFRH-C-BSA, biotinylated mAb 1:2000): more than 0.5 μg/ml
GREFRN (GREFRNC) [Peptide 4003] | + | block epitope recognition; also recorded: only inhibitory at a relatively high concentration (10 μg/ml) | weak | – | – | – | – | – | – | – | –
C[C@H](NC(=O)[C@@H](N)Cc1ccc(O)cc1)C(=O)N[C@@H](CCC(=O)O)C(=O)N[C@@H](Cc1ccccc1)C(=O)N[C@@H](CCCNC(=N)N)C(=O)NCC(=O)N[C@@H](CS)C(=O)O [Peptide 3005, YAEFRG] | + | block epitope recognition | intermediate | – | – | – | – | – | – | – | –
CC(C)C[C@H](NC(=O)[C@@H](N)CCC(=O)O)C(=O)N[C@@H](CCC(=O)O)C(=O)N[C@@H](Cc1ccccc1)C(=O)N[C@@H](CCCNC(=N)N)C(=O)NCC(=O)N[C@@H](CS)C(=O)O [Peptide 3008, ELEFRG] | + | – | weak | – | – | – | – | – | – | – | –
GEIWFEGC [p4680] | – | – | – | elicited immune responses | failed to induce a relevant unspecific immune response | 3 (strong binding :>320000) | mounted detectable immune responses | active in in vitro inhibition assays | 2 (strong inhibition (as original epitope; OD of peptide below 2, 3 times of original peptide)) | + | –
C[C@H](NC(=O)[C@@H](N)CCC(=O)O)C(=O)N[C@@H](CCC(=O)O)C(=O)N[C@@H](Cc1ccccc1)C(=O)N[C@@H](CCCNC(=N)N)C(=O)NCC(=O)N[C@@H](CS)C(=O)O [Peptide 3006, EAEFRG] | + | block epitope recognition | strong | – | – | – | – | – | – | – | –
GEIYFERC [p4681] | – | – | – | elicited immune responses | failed to induce a relevant unspecific immune response | 3 (strong binding :>320000) | mounted detectable immune responses | active in in vitro inhibition assays | 2 (strong inhibition (as original epitope; OD of peptide below 2, 3 times of original peptide)) | + | –
HQKMIFAC [p4675] | – | – | – | elicited immune responses | failed to induce a relevant unspecific immune response | 3 (strong binding :>320000) | mounted detectable immune responses | active in in vitro inhibition assays | 2 (strong inhibition (as original epitope; OD of peptide below 2, 3 times of original peptide)) | + | –
N=C(N)NCCC[C@H](NC(=O)[C@H](Cc1ccccc1)NC(=O)[C@H](CCC(=O)O)NC(=O)[C@H](Cc1ccc(O)cc1)NC(=O)[C@@H](N)CC(=O)O)C(=O)NCC(=O)N[C@@H](CS)C(=O)O [Peptide 3007, DYEFRG] | + | block epitope recognition | strong | – | – | – | – | – | – | – | –

Source: patent US20130287807A1, “COMPOUNDS FOR TREATING SYMPTOMS ASSOCIATED WITH PARKINSON'S DISEASE” (priority 2008, published 2013)
